Experimental findings from US20260240820A1, “METHOD FOR CONTROLLING MEMBRANE POTENTIAL-DEPENDENT ION CHANNEL THROUGH TYPE I TASTE RECEPTORS (T1RS)” (ION CHAT RESEARCH CORPORATE, priority 2022, published 2026) are described below.

In one data set the test system is VGSC. As to the kind of experiment: Patch-clamp recording of VGSC current, cell type not specified or several cell types (summary statements). The format is cell-based, human. For orientation: In patch-clamp work, channel activity is measured electrically.
The test system of a further data set is Nav1.5. The data set is described as follows: Patch-clamp (voltage clamp) recording of VGSC current in HEK cells stably expressing Nav1.5.
Data set [1] concerns VGSC of SH-SY5Y cells (Nav1.7, Nav1.2, Nav1.3). The data set is described as follows: Patch-clamp recording of VGSC current in differentiated SH-SY5Y cells. The format is cell-based, human. The settings on record: for IC50: read-out: IC50 (VGSC inhibition). From the text:
Furthermore, the inventors focused on the relationship between taste receptors, particularly the sweet or umami receptors containing the T1R3 subunit, which are widely expressed in the brain and nervous system, including the hippocampus and cortex. They used human neuroblastoma cells (SH-SY5Y) that functionally express Nav1.2, Nav1.3, and Nav1.7 (as reported in non-patent literature 8), as well as HEK cells stably expressing Nav1.5 (with endogenous expression of T1R1, T1R2, and T1R3). They observed the effects of taste stimuli on sodium channel activation. By reducing the expression of T1R1 and T1R3 genes using silencing vectors, they confirmed that the effects on sodium channel currents induced by taste stimuli act through taste receptor GPCRs.
The SH-SY5Y cell culture medium was prepared by mixing DMEM (Sigma-Aldrich) and F-12 (Sigma-Aldrich) in equal proportions. To induce neuronal-like differentiation, the medium contained 1% FBS (BioWest), 5% 40 mM L-Glutamine (Fuji Film), and 1% MEM non-essential amino acids (Wako Pure Chemical Industries). During differentiation, SH-SY5Y cells were cultured for at least 5 days with the addition of 10 μM/ml retinoic acid (Fuji Film). In this document, “SH-SY5Y cells” refer to the SH-SY5Y cell line differentiated into neuronal-like cells.

Another data set relates to Kv1.2. As to the kind of experiment: Patch-clamp recording of Kv1.2 potassium current in HEK cells expressing Kv1.2. It is filed as cell-based, human. How it is done: The effects of Aβ peptides or umami substances on sustained potassium currents (VGKC) in cardiac myocytes can be studied using HEK cells expressing VGKC (such as Kv1.2, Kv3.2, Kv3.3) as well as SH-SY5Y cells expressing endogenous T1R GPCRs. For instance, as shown in the implementation example in (FIG. 36B), Aβ peptides were applied to VGKC-expressing human cultured cells, and VGKC currents were recorded using ramp-like or rectangular voltage waveforms via the patch-clamp technique. This allowed measurement of the changes (inhibition) in VGKC currents caused by Aβ peptides. Similar inhibition studies on VGKC can be conducted using umami substance L-glutamate sodium (MSG) (FIG. 36A).
As shown in (FIG. 37), Aβ1-42 peptide, unlike Aβ25-35 targeting T1R3, interacts with T1R1 and inhibits VGSC currents (FIGS. 37D, E).

Data set [2] relates to voltage-dependent potassium channel current of SH-SY5Y cells. The data set is described as follows: Voltage clamp recording of outward potassium current in SH-SY5Y cells. The settings on record: 2 mM. It is filed as cell-based, human. From the text:
The inward current represents the transient peak observed immediately after stimulation, while the outward current measures the average value during the last 50 ms of rectangular pulse stimulation.

The subject of data set [3] is Nav1.5 in T1R3-silenced HEK cells. As to the kind of experiment: VGSC current in HEK Nav1.5 cells with silenced T1R3. It is filed as cell-based, human. From the text:
The miRNAs Oligo (Thermofisher) used for silencing were annealed to form double-stranded DNA, which was then linked to the miR RNAi Expression Vector using T4 DNA ligase to create the knockdown vector. Specifically, the procedure followed the miR RNAi Expression Vector Kit manual (BLOCK-i™ Pol II miR RNAi Expression Vector Kit with EmGFP (Catalog number: K493600)).
Since Aβ25-35 peptide produced similar effects (enhancing VGSC activity, lowering the excitability threshold) as glutamine, it was considered that Aβ25-35 peptide might also act on T1R2/T1R3 receptors like glutamine. Therefore, in this implementation example, we used HEK-Nav1.5 cells with silenced T1R3 and compared the effect of Aβ25-35 peptide on VGSC with that in control HEK-Nav1.5 cells.
To strengthen these findings, we conducted similar experiments using HEK Nav1.5 cells in which T1R3 expression was silenced (FIG. 22). We measured VGSC currents in T1R3-silenced HEK Nav1.5 cells, applying stimuli every 8 seconds.

“Also recorded” adds a separate entry of the source. Like-named read-outs stand apart in the source and are kept apart here.

Regarding `N[C@@H](CC(=O)O)C(=O)O` [aspartic acid], in the data set with VGSC, the “Effect on VGSC inactivation” value is listed as “delay VGSC inactivation”.

Consider `COc1ccc(OC(C)C(=O)O)cc1` (stereo not drawn) [Lactisole], for which, in the data set on VGSC, the “Effects on VGSCs” value is given as “Inhibition of VGSCs”. The “Effect on VGSC enhanced by Aβ25-35” value in the data set with Nav1.5 (1-1.5 mM) is on record as “inhibits the enhancing effect of Aβ25-35 on VGSC; also recorded: recovered to the size of VGSC recorded in the control”.

In the case of `NC(=O)CC[C@H](N)C(=O)O` [L-Gln, L-glutamine], the “Effect on VGSC inward current” value in data set [1] (500 μM) was “enhancement of transient downward VGSC current; also recorded: amplification of VGSC inward current”. The “Effects on VGSCs” value in the data set on VGSC is “Enhancement of VGSC; also recorded: Delay in VGSC inactivation”. In addition, the “Increase in VGSC current” value in the data set on VGSC (0.5-1 mM, SH-SY5Y (n=8) and HEK-Nav1.5 (n=4)) is recorded as 10-20%. The “Effect on VGSC current” value with VGSC (concentrations higher than 1 mM) is 500 uM and 1 mM but not at higher; in the data set on VGSC (concentrations higher than 1 mM, listed as glutamine), “No further enhancement”. Moreover, the “Effect on voltage gated K+ channel (Kv1.2) current” value with Kv1.2 is given as “Inhibition of Voltage gated”.

Regarding `OC[C@H]1OC(O)[C@H](O)[C@@H](O)[C@@H]1O` (stereo partly drawn) [Glucose], the “Effects on VGSCs” value with VGSC (<10 mM) is listed as “Enhancement of VGSC”; with VGSC (>20 mM), “Inhibition of VGSCs”.

`OC[C@H]1O[C@@](CO)(O[C@H]2O[C@H](CO)[C@@H](O)[C@H](O)[C@H]2O)[C@@H](O)[C@@H]1O` [Sucrose]: the “Effects on VGSCs” value with VGSC is “Inhibition of VGSCs”.

With `C/C1=C/C(=O)O[C@@H]2C[C@@H](CC[C@H](C)/C=C\C=C\CC1)O[C@@](O)([C@@H]1CSC(=O)N1)C2` [Latrunculin A], in the data set with VGSC, the “Effects on VGSCs” value is given as “reduces VGSC” and the “Shift of steady-state inactivation (S-S) curve of VGSC” value was “shifting the S-S curve toward hyperpolarization”. The “Effect on VGSC current” value with VGSC (12.6 μM) was “shifted the VGSC current toward hyperpolarization and inhibited it”. In addition, the “Effect on VGSC current” value in the data set with VGSC (12.6 μM, listed as LatA) was “significantly inhibits VGSC current”.

Regarding `NCCCC[C@H](N)C(=O)O` [lysine], the “Effect on VGSC inactivation” value with VGSC was “delay VGSC inactivation”.

With `COc1cc2c(c(OC)c1OC)-c1ccc(OC)c(=O)cc1[C@@H](NC(C)=O)CC2` [Colchicine], the “Effects on VGSCs” value in the data set on VGSC is given as “Enhances VGSC”. In addition, the VGSC current amplitude entry in the data set with VGSC (2.25 μM, at −40 mV) is on record as “nearly doubled”.

In the case of `Nc1nc2c(ncn2[C@@H]2O[C@H](COP(=O)(O)O)[C@@H](O)[C@H]2O)c(=O)[nH]1` [GMP, guanosine 5′-monophosphate], the “Leftward shift in the I-V curve” value in data set [1] was “approximately 10 mV”. Moreover, in data set [1] (2 mM), the “Effect on VGSC current” value is “slight increase in VGSC currents” and the Steady-state inactivation curve result was “No change; also recorded: No changes were observed”. The “Effects on VGSCs” value in the data set on VGSC is given as “enhances VGSC; also recorded: Enhancement of VGSC”. Besides, the “Effect on VGSC” value in the data set on VGSC (1 mM) is 1 mM GMP, much like L-Gln, primarily enhances VGSC without altering. Besides, in data set [2], the “Effect on outward potassium current” value is “peak outward potassium current decreases; also recorded: reduced outward potassium currents”.

As to `NCCCC(=O)O` [GABA, γ-aminobutyric acid], the “Effect on VGSC current enhanced by Aβ42/40 (AD-D)” value in the data set on Nav1.5 (applied after Aβ42/40 (AD-D)) is given as “no effects similar to β-alanine were observed”.

Regarding `CC(=O)O[C@H]1C(=O)[C@@]2(C)[C@H]([C@H](OC(=O)c3ccccc3)[C@]3(O)C[C@H](OC(=O)[C@H](O)[C@@H](NC(=O)c4ccccc4)c4ccccc4)C(C)=C1C3(C)C)[C@]1(OC(C)=O)CO[C@@H]1C[C@@H]2O` [Taxol], the “Effects on VGSCs” value in the data set on VGSC is on record as “Enhances VGSC”. For the same molecule, the “Effect on VGSC current” value is “VGSC enhancement was observed” in the data set with Nav1.5 (0.4 μM to […]) and “enhances HEK Nav1.5 cell VGSC” with Nav1.5 (0.4 μM to […], listed as Paclitaxel (Taxol)).

Turning to `N[C@@H](CO)C(=O)O` [L-Serin, L-serine], in the data set on VGSC, the “Effects on VGSCs” value is “Enhancement of VGSC”. In addition, in the data set on VGSC (2.5 mM), the “Effect on VGSC current” value is “Enhances VGSC currentat 2.5 mM”.

Regarding `CC(Oc1ccc(Cl)cc1Cl)C(=O)O` (stereo not drawn) [dichlorprop, 2-(2,4-dichlorophenoxy) propanoic acid], the IC50 in data set [1] (prepulse −80 mV) came out at 17.3 µM; in data set [1] (prepulse/holding voltage −60 mV), 9 µM. In addition, the “Rank among sweet taste inhibitors in inhibiting Na+ channels” value in the data set with VGSC (dichlorprop>>clofibrate>lactisole) is given as “most effective inhibitor of sodium channels at the lowest concentration; also recorded: most potent”. Also, in the data set on VGSC (listed as DichrolProp), the “Effects on VGSCs” value was “Inhibition of VGSCs”. In addition, the “Effect on VGSC current amplitude” value in the data set on Nav1.5 is “reduced the amplitude of VGSC current”. Further, in the data set with Nav1.5 (500 μM), the “Vh of steady-state inactivation curve” value was “shifted to a more negative potential”. In addition, the “Slope of steady-state inactivation curve” value in the data set on Nav1.5 (Control vs 300 and 500 μM, t-test) is given as “no significant difference”. For the same molecule, the “Effect on S-S curve of VGSC in the presence of Taxol” value with Nav1.5 (in the presence of Taxol) is given as “shifted the S-S curve of VGSC in the hyperpolarizing direction”.

Consider `CC(C)(Cc1ccc2ccccc2c1)NC[C@@H](O)COc1cccc(Cl)c1C#N` [NPS-2143], for which the “Effects on VGSCs” value in the data set on VGSC is on record as “inhibited human VGSC; also recorded: Inhibition of VGSCs”. For the same molecule, the “Required concentration for VGSC inhibition” value with VGSC (HEK Nav1.5 and SH-SY5Y) is 5 µM. In addition, the “Effect on VGSC current” value with Nav1.5 (5 μM) is listed as “Inhibitory effect; also recorded: slowly inhibited”. Besides, in the data set with Nav1.5 (when VGSC inhibition nearly complete), the “Effect on leak (baseline) current” value is listed as “non-selective leak currents”. In data set [3], the “Effect on VGSC in T1R3-silenced cells” value is “no VGSC inhibitory effect was observed”.

As to `Brc1c(Br)c(Br)c2[nH]nnc2c1Br` [TBB, 4,5,6,7-tetrabromobenzotriazole], the entries for the “Shift of steady-state inactivation (S-S) curve of VGSC” value in the data set with VGSC and in the data set with Nav1.5 were “shifted to the hyperpolarizing direction even at control recordings” and “shifted gradually to the left; also recorded: significantly shifts in the hyperpolarizing direction”, respectively. In addition, the “Effect on VGSC current amplitude” value in the data set with Nav1.5 was “reduced the amplitude of VGSC current”. Also, the “Suppression of VGSC current” value is recorded as “almost completely suppressed” in the data set on Nav1.5 (10 μM, prepulse −80 mV, test pulse −20 mV); “about half suppressed” in the data set with Nav1.5 (10 μM, prepulse −100 mV); “about 50%” with Nav1.5 (prepulse −120 mV, at the used TBB concentration). Moreover, the VGSC current unaffected entry in the data set on Nav1.5 (10 μM, prepulse −120 mV) is on record as “more than 80%”. Besides, in the data set with Nav1.5 (minimum concentration (printed 30 μM), preceding pulse −80 mV), the VGSC current inhibition entry was “nearly complete VGSC current inhibition”. For the same molecule, the IC50 in the data set on Nav1.5 (read-out: IC50 from difference in Vh of steady-state inactivation curve (Hill equation)) amounted to 12.9 µM; in the data set with Nav1.5 (read-out: IC50 of inhibition of VGSC current (INa, step −100 mV to −20 mV, Hill plot), prepulse −100 mV), 15.8 µM.

The IC50 is the concentration that inhibits the measured activity by half.
